This experiment deals with tyrosinase activity in B16 melanoma cells. Nature of the experiment: Tyrosinase activity in B16 melanoma cells (lysate, L-dopa to dopachrome, absorbance 475 nm). It counts as cell-based. As to conditions: B16 cells treated for 3 days, untreated control = 100. The text has this: Tyrosinase is an oxidase that is the rate-limiting enzyme for controlling the production of melanin. The enzyme is mainly involved in two distinct reactions of melanin synthesis; firstly, the hydroxylation of a monophenol and secondly, the conversion of an o-diphenol to the corresponding o-quinone. o-quinone undergoes several reactions to eventually form melanin Tyrosinase is a copper-containing enzyme present in plant and animal tissues that catalyzes the production of melanin and other pigments from tyrosine by oxidation. It is found inside melanosomes which are synthesized in the skin melanocytes. In humans, the tyrosinase enzyme is encoded by the TYR gene.
To measure the tyrosinase activity of the cells, the B16 cells treated for 3 days with several doses of compounds were lysed by incubation at 4° C. for 30 min in lysis buffer (20 mM sodium phosphate, pH 6.8, 1% Triton X-100, 1 mM PMSF, 1 mM EDTA) containing protease inhibitors cocktail. The lysates were centrifuged at 15,000×g for 10 min to obtain the supernatant as the source of tyrosinase. The reaction mixture contained 20 mM phosphate buffer, pH 6.8, 1.25 mM L-dopa (Sigma-Aldrich). After incubation at 37° C. for 2 h, dopachrome formation was monitored by measuring absorbance at a wavelength of 475 nm in a microplate reader (TECAN).

Consider `CCCCCc1cc(O)c(C/C=C(\C)CCC=C(C)C)c(O)c1` [(−) CBG], for which the “Tyrosinase Activation” value (sample conc. 0.5 μg/ml) is 62% and the “Tyrosinase Activation” value (sample conc. 1 μg/ml) came out at 55%.
For `CCCCCCCCCCCC=O` [Aldehyde C12], the “Tyrosinase Activation” value runs as follows: (sample conc. 0.1 μg/ml) 78%; (sample conc. 1 μg/ml) 82%.
Take `C=CCOC(=O)COc1ccccc1` [Allyl phenoxyacetate]: the “Tyrosinase Activation” value by setting is: (sample conc. 1 μg/ml) 62%; (sample conc. 10 μg/ml) 50%; (sample conc. 50 μg/ml) 48%.
For `O=Cc1ccccc1` [Benzaldehyde], the “Tyrosinase Activation” value (sample conc. 10 μg/ml) turned out to be 75%.
For `CC(=O)CCc1ccccc1` [Benzyl acetone], the “Tyrosinase Activation” value (sample conc. 5 μg/ml) is listed as 90%, the “Tyrosinase Activation” value (sample conc. 25 μg/ml) came out at 80% and the “Tyrosinase Activation” value (sample conc. 100 μg/ml) was 90%.
Take `CC(C)=CCC(C)(C)C(=O)C(C)C` [Claritone]: the “Tyrosinase Activation” value (sample conc. 2.5 μg/ml) is listed as 70%.
As for `C=CCOC(=O)COC1CCCCC1` [Cyclogalbanate], the “Tyrosinase Activation” value (sample conc. 10 μg/ml) was 73%.
For `CC(=O)OC1CC(C)CC(C)(C)C1` (stereo not shown) [Mintonat, Homomenthyl acetate], the “Tyrosinase Activation” value (sample conc. 1 μg/ml) was 80%.
As for `COC(Cc1ccccc1)OC` [Phenyl acetaldehyde dimethyl acetal], the “Tyrosinase Activation” value by setting is: (sample conc. 10 μg/ml) 80%; (sample conc. 100 μg/ml) 78%.
